From patent US8993626B2, “Methods of treatment using sterculic acid” (The United States of America, as represented by the …, priority 2010, dated 2015)

Key:
[1] = tested on: ARPE-19 cells; assay: Fatty acids against 7KCh-mediated cell death (CCK8); type: cell-based; conditions: 12 μM 7KCh for 24 hr; tested 0.1, 0.5, 1, 5 and 10 μM
Experimental: FIGS. 12A-12C depict ARPE-19 cell viability in response to 12 μM 7KCh with or without 0.1-5 μM (A) sterculic acid and (B) stearic acid after 24 hr treatments. Error bars indicate the standard deviations. n=3-5. Two-tailed Student's t-test. (C) Representative images of changes in cell morphology in response to 12 μM 7KCh with or without 1 μM sterculic acid and stearic acid after 24 hr treatments.
(§1) ARPE-19 cells were seeded in 24-well plates with 1×10^5 cells per well and allowed to recover for 16-24 hr. Once confluency reached approximately 90%, the effect of the fatty acids against 7KCh-mediated cell death was examined 24 hr after incubation in serum-free medium with 12 μM 7KCh. Fatty acids were tested at 0.1, 0.5, 1, 5 and 10 μM concentrations. The effects of the fatty acids against 7KCh-mediated inflammation and ER stress were examined by incubating cells in 1 μM fatty acids with either 8 μM 7KCh (24 hr for quantitative real-time PCR (qRT-PCR), 24 and 48 hr for immunoblot), or 6 μM 7KCh for 48 hr (for ELISA). Three individual experiments were performed for each treatment with quadruplicate measurements performed for each experiment in 24-well plates.
The cell viability was determined by the dehydrogenase activity of the ARPE-19 cells using Cell Counting Kit-8 (CCK8, Dojindo, Gaithersburg, Md.) according to manufacturer's protocol.
The lowest effective concentrations of fatty acids that offset the 7KCh-mediated cell death were determined. […] Table 3 lists the lowest concentrations of these fatty acids required to maintain full cell viability against 12 μM 7KCh treatment. All unsaturated fatty acids protected against 7KCh-induced cell death. […] DHA, α-linolenic, and linoleic acid prevented 7KCh-mediated cell death at 5 μM but the rest of unsaturated fatty acids and dihydrosterculic acid required 10 μM to be protective.

[2] = tested on: ARPE-19 cells; assay: qRT-PCR of inflammatory cytokines and ER stress markers, 7KCh-mediated inflammation; type: cell-based; conditions: 24 hr; for VEGF mRNA expression / IL-6 mRNA expression / GRP78 mRNA expression / CHOP mRNA expression: 8 μM 7KCh alone or with 1 μM fatty acid; for VEGF mRNA expression: FIG. 13A; for IL-6 mRNA expression: FIG. 13B; for GRP78 mRNA expression: FIG. 13C; for CHOP mRNA expression: FIG. 13D; for effect on 7KCh-mediated mRNA induction (inflammatory response): 1 μM fatty acid + 8 μM 7KCh, FIG. 13
Experimental: FIGS. 13A-13D depict mRNA expressions of (A) VEGF, (B) IL-6, (C) GRP78, and (D) CHOP in response to 8 μM 7KCh with or without 1 μM long-chain fatty acids. Error bars indicate the standard deviations. *p<0.05 comparing to 7KCh, n=3. Two-tailed Student's t-test.
FIGS. 14A-14D depict mRNA expressions of (A) VEGF, (B) IL-1b, (C) IL-6, and (D) IL-8 in response to 8 μM 7KCh, 1 μM sterculic acid, 1 μM stearic acid, or the combinations of 7KCh with either sterculic acid or stearic acid. Error bars indicate the standard deviations. *p<0.05 comparing to 7KCh, n=4. Two-tailed Student's t-test.
FIGS. 15A-15D depict mRNA expressions of (A) TNF-α, (B) TGF-β1, (C) GRP78, and (D) CHOP in response to 8 μM 7KCh, 1 μM sterculic acid, 1 μM stearic acid, or the combinations of 7KCh with either sterculic acid or stearic acid. Error bars indicate the standard deviations. *p<0.05 comparing to 7KCh, n=3-4. Two-tailed Student's t-test.
as §1
(§2) The RNA was extracted using RNeasy Mini Kit (Qiagen, Valencia, Calif.). The reverse transcription was performed with reagents and kits from Invitrogen. Quantification of mRNA expression was performed using the Taqman gene expression assays and the following primers (VEGFa, Hs00173626_m1; IL-1β, Hs01555413_m1; IL-6, Hs00174131_m1; IL-8, Hs00174103_m1; IκBα, Hs00153283_m1; GRP78, Hs99999174_m1; CHOP, Hs01090850_m1; NOX2, Hs00166163_m1; NOX4, Hs01558199_m1; SCD, Hs00748952 s1; TNF-α, Hs00174128_m1; TGF-β1, Hs00998133_m1; GAPD, 4352934e). GAPD expression was used as an endogenous standard. All qRT-PCR experiments were measured in triplicates in an ABI 7500 Real-Time PCR Instrument (Applied Biosystems, Foster City, Calif.). The results of each treatment were normalized and presented in percentage relative to the vehicle-only control.

[3] = tested on: ARPE19 cells; assay: Phase-contrast images of cells after co-treatment with 15 μM 7KCh; type: cell-based, human; conditions: 1 μM fatty acid + 15 μM 7KCh, 24 hr
Source text: FIG. 8 depicts phase-contrast images of ARPE19 cells at 24 hr after sterculic acid co-treatment with 7KCh.

[4] = tested on: ARPE19 cells; assay: Cell Counting Kit-8 viability assay, 15 μM 7KCh-induced cytotoxicity; conditions: 1 μM fatty acid + 15 μM 7KCh, 24 hr, CCK-8
[5] = tested on: ARPE19 cells; assay: 7-ketocholesterol-mediated cytotoxicity, 24-well CCK-8 viability and images; conditions: 24 hr
[6] = tested on: ARPE19 cells; assay: CellTiter-Glo luminescent cell viability assay, 15 μM 7KCh-induced cytotoxicity; type: cell-based, human; conditions: 1 μM fatty acid + 15 μM 7KCh, 24 hr, CellTiter-Glo
Experimental: Error bar: standard deviation, n=4.
CellTiter-Glo® Luminescent Cell Viability Assay is a homogeneous method of determining the number of viable cells in culture based on quantitation of the ATP (luminescent signal) present, an indicator of metabolically active cells.
The contents in a plate were mixed for 2 min on an orbital shaker to induce cell lysis.
5) The plate was allowed to incubate at room temperature for 10 min to stabilize luminescent signal.

[7] = tested on: ARPE-19 cells; assay: qRT-PCR of cytokines in TNF-α treated cells; type: cell-based; conditions: 24 hr
Experimental: FIGS. 17A-17D depict the mRNA expressions of (A) IL-1β, (B) IL-8, (C) IκBα, and (D) GRP78 in response to 2 ng/ml TNF-α, 1 μM sterculic acid, 1 μM stearic acid, or the combinations of TNF-α with either sterculic acid or stearic acid. n=3. Error bars indicate the standard deviations.
Tumor necrosis factor-alpha (TNF-α, Roche Diagnostics, Indianapolis, Ind.) was diluted in PBS to make 10 μg/ml stock solution and stored at −20° C. In order to test the anti-inflammation effect of fatty acids against TNF-α, ARPE-19 cells were treated with 2 ng/ml of TNF-α for 24 hr in serum-free medium with or without 1 μM fatty acids. The mRNA expressions of cytokines were then examined using qRT-PCR. Each treatment was performed three times with quadruplicate measurements in each experiment, in 24-well plates.
as §2

Molecule | CONC. (μM): lowest concentration required to maintain full cell viability against 7KCh [1] | VEGF mRNA expression [2] | IL-6 mRNA expression [2] | GRP78 mRNA expression [2] | CHOP mRNA expression [2] | effect on 7KCh-mediated mRNA induction (inflammatory response) [2] | also measured
CC/C=C\C/C=C\C/C=C\C/C=C\C/C=C\C/C=C\CCC(=O)O [docosahexaenoic acid] | 5 µM | – | – | – | – | – | –
CC/C=C\C/C=C\C/C=C\CCCCCCCC(=O)O [α-linolenic acid] | 5 µM | essentially ineffective | somewhat effective | somewhat effective | somewhat effective | – | –
CCCCC/C=C\C/C=C\CCCCCCCC(=O)O [linoleic acid] | 5 µM | – | – | – | – | either ineffective or enhanced | –
CCCCC/C=C\C/C=C\C/C=C\C/C=C\CCCC(=O)O [arachidonic acid, Arachidonic acid] | 10 µM | – | – | – | – | either ineffective or enhanced | –
CCCCCCCC[C@@H]1C[C@@H]1CCCCCCCC(=O)O [dihydrosterculic acid, Dihydrosterculic acid] | 10 µM | essentially ineffective | somewhat effective | somewhat effective | somewhat effective | – | cell morphological changes compared to 7KCh alone [3]: more cells compared to 7KCh alone; increase of cell viability compared to 7KCh alone treatment [4]: 20%; protection of cell confluency and morphology (images) ([5]; 0.5 μM co-treatment with 12 μM 7KCh): no effect; protection of cell confluency and morphology (images) ([5]; 1 μM co-treatment with 12 μM 7KCh): slight effect; protection of cell confluency and morphology (images) ([5]; 1 μM co-treatment with 12 μM 7KCh, listed as Dihydrosterculic acid): do not have such protection effect; increase of cell viability compared to 7KCh alone treatment [6]: 20%
TNF-α | – | – | – | – | – | – | induction of GRP78 mRNA expression ([7]; 2 ng/ml TNF-α alone or with 1 μM fatty acid, FIG. 17D): 2.5 fold; induction of IL-1β mRNA expression ([7]; 2 ng/ml TNF-α): 9 fold; induction of IL-8 mRNA expression ([7]; 2 ng/ml TNF-α): 8 fold; induction of IκBα mRNA expression ([7]; 2 ng/ml TNF-α): 3 fold
